Measurements taken from patent US5622983A, “N-substituted cycloalkyl and polycycloalkyl α-substituted Trp-Phe- and phenethylamine derivatives” (Warner-Lambert Company, priority 1995, dated 1997).

Columns and labels:
[1] = Light/dark exploration test (anxiolytic activity); assay type: in vivo, mouse
Experimental: In FIG. 2 the number of mice was 5 and the pretreatment time was 40 minutes. The compound was given p.o. in 0.1, 1, and 10 mg/kg doses.
The apparatus was an open-topped box, 45 cm long, 27 cm wide, and 27 cm high, divided into a small (2/5) area and a large (3/5) area by a partition that extended 20 cm above the walls. There was a 7.5×7.5 cm opening in the partition at floor level. The small compartment was painted black and the large compartment white. The floor of each compartment was marked into 9 cm squares. The white compartment was illuminated by a 100-watt tungsten bulb 17 cm above the box and the black compartment by a similarly placed 60-watt red bulb. The laboratory was illuminated with red light.
All tests were performed between 13 hundred hours, 0 minutes and 18 hundred hours, 0 minutes. Each mouse was tested by placing it in the center of the white area and allowing it to explore the novel environment for five minutes. Its behavior was recorded on videotape and the behavioral analysis was performed subsequently from the recording. Five parameters were measured: the latency to entry into the dark compartment, the time spent in each area, the number of transitions between compartments, the number of lines crossed in each compartment, and the number of rears in each compartment.
Drugs were dissolved in water or saline and administered either subcutaneously, intraperitoneally, or by mouth (PO) via a stomach needle.

[2] = Palatable Diet Feeding assay; assay type: in vivo, rat; settings: dose producing 50% of the maximum effect possible (zero food intake)
Experimental: In the Palatable Diet Feeding assay, adult male Hooded Lister rats weighing between 200-400 g were housed individually and trained to eat a palatable diet. This diet consisted of Nestles sweetened condensed milk, powdered rat food and rat water which when blended together set to a firm consistency. […] The intake of palatable diet was measured by weighing the food container before and after the 30-minute access period (limits of accuracy 0.1 g). Care was taken to collect and correct for any spillage of the diet. Rats had free access to pellet food and water except during the 30-minute test period.
After the training period, dose-response curves were constructed for CCK8 and several representative compounds of the present invention (n=8-10 rats per dose level).

Central CCK Receptors = biological target: T1, Central CCK Receptors (Mus musculus, UniProt P56481); assay: Binding to central CCK receptors (tritiated-pentagastrin displacement, cerebral cortical membranes); settings: read-out: Binding to Central CCK Receptors Ki; displacement of 2 nM tritiated-pentagastrin, mouse cerebral cortical membranes
T1 sequence (P56481 1-453): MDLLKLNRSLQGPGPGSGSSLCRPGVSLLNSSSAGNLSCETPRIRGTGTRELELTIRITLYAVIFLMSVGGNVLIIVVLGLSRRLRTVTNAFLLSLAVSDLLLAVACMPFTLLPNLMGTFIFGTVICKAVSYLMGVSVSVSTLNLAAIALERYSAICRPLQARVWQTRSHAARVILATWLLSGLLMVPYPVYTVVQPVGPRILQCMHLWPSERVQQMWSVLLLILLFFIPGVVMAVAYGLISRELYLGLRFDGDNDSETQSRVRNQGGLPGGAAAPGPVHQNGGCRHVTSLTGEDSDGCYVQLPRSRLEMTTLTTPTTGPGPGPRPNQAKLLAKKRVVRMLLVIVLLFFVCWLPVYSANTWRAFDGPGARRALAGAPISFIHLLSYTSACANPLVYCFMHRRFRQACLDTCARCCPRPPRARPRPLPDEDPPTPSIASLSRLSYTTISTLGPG
Experimental: The biological activity of compounds of the present invention was evaluated employing an initial screening test which rapidly and accurately measured the binding of the tested compound to known CCK receptor sites.
The resulting suspension was centrifuged, the supernate was discarded, and the pellet was washed by resuspension in Tris-HCl buffer followed by recentrifugation.
In saturation studies, cerebral cortical membranes were incubated at 23° C. for 120 minutes in a final volume of 500 μliter of Hepes incubation buffer (pH 7.2) together with 0.2-20 nM tritiated-pentagastrin (Amersham International, England).
In each case, the nonspecific binding was defined as that persisting in the presence of the unlabeled octapeptide CCK26-33 (10^-6 M).
Following incubation, radioactivity bound to membranes was separated from that free in solution by rapid filtration through Whatman GF/B filters and washed three times with 4 mL of ice cold Tris-HCl buffer.
The specific binding to CCK receptor sites was defined as the total bound tritiated-pentagastrin minus the amount of tritiated-pentagastrin bound in the presence of 10^-6 octapeptide, CCK26-33.
The inhibition constant (Ki) of the test compound was then calculated according to the Cheng-Prusoff equation: [formula] where [L] is the concentration of radiolabel and Ka is the equilibrium dissociation constant.

[3] = system: pentagastrin stimulated gastric acid secretion; assay: Pentagastrin stimulated gastric acid secretion (Ghosh and Schild perfused stomach); assay type: in vivo, rat; settings: 1 nmole/kg pentagastrin
Experimental: They were anesthetized with urethane (1.5 g/kg IP) and the trachea cannulated to aid spontaneous respiration. The stomach was perfused continuously using a modification of the original method of Ghosh & Schild in "Continuous recording of acid secretion in the rat", Br. J. Pharmac. […] The fluid was propelled by a roller pump (Gilson, Minipuls 2), through heating coils to bring its temperature to 37°±1° C. The perfusion fluid was collected by the fundic collecting funnel and passed to a pH electrode connected to a Jenway pH meter (PHM6). An output was taken from the pH meter to a Rikadenki chart recorder for the on-line recording of the pH of the gastric perfusate.
Pentagastrin was stored as a frozen aliquot and diluted to the required concentrations with sterile 0.9% w/v NaCl. Novel compounds were dissolved in sterile 0.9% w/v NaCl on the day of the experiment. Drugs were administered IV through a cannulated jugular vein as a bolus in a dose volume of 1 mL/kg washed in with 0.15 mL 0.9% w/v NaCl. Basal pH was allowed to stabilize before administration of compounds was begun.

[4] = Withdrawal from long-term drug or alcohol treatment, mouse light/dark box test; assay type: in vivo; settings: 24-hour withdrawal
Experimental: The effect of the compounds of the instant invention is illustrated, for example, in the mouse "light/dark box" test in FIGS. 5-12.
In FIG. 5, five animals were given nicotine, 0.1 mg/kg i.p.b.d. for 14 days. After a 24-hour withdrawal period, compound (20) was given at 1.0 mg/kg i.p.b.d.
FIG. 6 illustrates the effect of long-term treatment and withdrawal from nicotine using compound (20A). Five mice were given nicotine at 0.1 mg/kg i.p.b.d. for 14 days. After a withdrawal period of 24 hours, compound (20A) was given at 10 mg/kg i.p.b.d.
FIG. 7 illustrates the effect of long-term treatment and withdrawal from diazepam with intervention with compound (20). Five mice were given diazepam, at 10 mg/kg i.p.b.d. for seven days. Withdrawal was for a 24-hour period; compound 20 was given at 1.0 mg/kg i.p.b.d.
FIG. 8 illustrates the effect of compound (20A) on the long-term treatment and withdrawal from diazepam. Five mice were given diazepam at 10 mg/kg i.p.b.d. for seven days. After a withdrawal period of 24 hours, compound (20A) was given at 10 mg/kg i.p.b.d.
FIG. 9 illustrates the effect compound (20A) on the long-term treatment and withdrawal from alcohol. Five mice were given alcohol in drinking water 8% w/v for 14 days. After a withdrawal period of 24 hours, compound (20) was given at 1.0 mg/kg i.p.b.d.
Five mice were given alcohol in drinking water, 8% w/v for 14 days. After a withdrawal period of 24 hours, compound (20A) was given at 10 mg/kg i.p.b.d.
FIG. 11 illustrates the effectiveness in the long-term treatment and withdrawal from cocaine. Five mice were given cocaine as 1.0 mg/kg i.p.b.d. for 14 days.
Five mice were given cocaine at 1.0 mg/kg i.p.b.d. for 14 days after a withdrawal period of 24 hours, compound (20a) was given at 1.0 mg/kg i.p.b.d.

[5] = Antagonism of intra-accumbens amphetamine hyperactivity (antipsychotic activity); assay type: in vivo, rat; settings: 20 mg/kg or 30 mg/kg intraperitoneal; amphetamine 20 μg
Experimental: Male Sprague Dawley (CD) Bradford strain rats were used. The rats were housed in groups of five at a temperature of 21°±2° C. on a 12 hour light-dark cycle of lights-on between 07 hours 00 minutes and […]. Rats were fed CRM diet (Labsure) and allowed water ad libitum.
Rats were anesthetized with chloral hydrate (400 mg/kg SC) and placed in a Kopf stereotaxic frame. Chronically indwelling guide cannulae (constructedof stainless steel tubing 0.65 mm diameter held bilaterally in Parspex holders) were implanted using standard stereotaxic techniques to terminate 3.5 mm above the center of the nucleus accumbens (Ant. 9.4, Vert. 0.0, Lat. 1.6) or 5.0 mm above the central nucleus of the amygdala (Ant. 5.8, Vert. -1.8, Lat. ±4.5) (atlas of De Groot, 1959). The guides were kept patent during a 14-day recovery period using stainless steel stylers, 0.3 mm diameter, which extended 0.5 mmbeyond the guide tips.
Rats were manually restrained and the stylers removed. Intracerebral injection cannulae, 0.3 mm diameter, were inserted and drugs delivered in a volume of 0.5 μl over 5 seconds (a further 55 seconds was allowed for deposition) from Hamilton syringes attached via polythene tubing to the injection units. […]
The abilities of the compounds (20) and (20A) to inhibit the hyperactivity caused by the injection of amphetamine into the nucleus accumbens of the rat was measured. […]

[6] = Aspirin-induced gastric damage; assay type: in vivo, rat; settings: 15 mg/kg PO
Experimental: Aspirin-induced gastric damage was assessed in groups of 10 rats each.
All animals were fasted for 24 hours before and throughout the experiment. Drug or vehicle was given 10 minutes before an oral dose of 1 mL of a 45-mg/mL suspension of aspirin in 0.5% carboxymethylcellulose (CMC).
The animals were sacrificed five hours after aspirin administration and the stomachs removed and opened for examination.

C[C@](Cc1c[nH]c2ccccc12)(NC(=O)OC1C2CC3CC(C2)CC1C3)C(=O)NC[C@H](NC(=O)/C=C/C(=O)O)c1ccccc1 (relative stereo) [Example 22, [R-[R*,R*-(E)]]-4-[[2-[[3-(1H-indol-3-yl)-2-methyl-1-oxo-2-[[(tricyclo[3.3.1.1^3,7]dec-2-yloxy)carbonyl]amino]propyl]amino]-1-pbenylethyl]amino]-4-oxo-2-butenoic acid]
time spent in the light area of the test box ([1]; SC): significantly (p <0.01) increased the time spent in the light area
anxiolytic activity by the subcutaneous route ([1]; subcutaneous): active

CN1C(=O)CN=C(c2ccccc2)c2cc(Cl)ccc21 [Diazepam, reference compound]
effect on crossings compared with compound (20) ([1]; 0.25 mg/kg IP, same experiment): effect identical to compound (20)

CC(Cc1c[nH]c2ccccc12)(NC(=O)OC1C2CC3CC(C2)CC1C3)C(=O)NC(COC(=O)CCC(=O)O)Cc1ccccc1 (stereo not drawn) [Example 16, [R-(R*,S*)]-2-[[3-(1H-indol-3-yl)-2-methyl-1-oxo-2-[[(tricyclo[3.3.1.1^3,7 dec-2-yloxy)carbonyl]amino]propyl]amino]-3-phenylpropyl butanedioate]
Inhibition of Feeding on Rat Palatable Diet Assay I.P. MPE50 [2]: 10.5 mg/kg
Ki (Central CCK Receptors): 30 nM
reversibility of the antagonism [3]: reversible with full recovery of the response to pentagastrin
effect on stimulation of gastric acid secretion produced by pentagastrin ([3]; compound IV, anesthetized rat): attenuated
gastric acid secreted in response to pentagastrin after compound ([3]; cumulative dose of 1.1 μmole/kg, initial pentagastrin response 254 μmoles/1 H^+): 128 μmoles/1 H^+

CC(Cc1c[nH]c2ccccc12)(NC(=O)OC1CC2CCC1(C)C2(C)C)C(=O)NCC(NC(=O)CCC(=O)O)c1ccccc1 (stereo not drawn) [Example 20A, [1S -[1α,2β[S*(S*)], 4α]]-4-[[2-[[3-(1H-indol-3-yl)-2-methyl-1-oxo-2-[[[(1,7,7-trimethylbicyclo[2.2.1]hept-2-yl)oxy]carbonyl]amino]propyl]amino]-1-phenylethyl]amino]-4-oxobutanoic acid]
Ki (Central CCK Receptors): 3 nM
time spent in the light section after withdrawal from alcohol (FIG. 10) ([4]; alcohol 8% w/v in drinking water 14 days, compound 10 mg/kg i.p.b.d.): increased time spent in the light section
time spent in the light section after withdrawal from cocaine (FIG. 12) ([4]; cocaine 1.0 mg/kg i.p.b.d. 14 days, compound 1.0 mg/kg i.p.b.d.): increase in time spent in the light section
time spent in the light section after withdrawal from diazepam (FIG. 8) ([4]; diazepam 10 mg/kg i.p.b.d. seven days, compound 10 mg/kg i.p.b.d.): demonstrates the effectiveness of the compound
time spent in the light area after withdrawal from nicotine (FIG. 6) ([4]; nicotine 0.1 mg/kg i.p.b.d. 14 days, compound 10 mg/kg i.p.b.d.): increase of time spent in the light area
hyperactivity caused by intra-accumbens injection of amphetamine [5]: reduced the hyperactivity

CNC(=C[N+](=O)[O-])NCCSCc1ccc(CN(C)C)o1 [ranitidine, reference compound]
inhibition of ulcer formation [6]: 74%
ulcer score ([6]; ±SD, saline control 12.1±6.85): 3.2±2.35
